Source: patent US20250332173A1, “COMPOUNDS AND METHODS FOR MODULATING NUCLEIC ACID SPLICING” (REMIX THERAPEUTICS INC., priority 2021, published 2025)
Where two headings read alike, the source gives them in different places.

Key:
Assay type in all cases: cell-based, human
SMN2 mRNA = assay: RT-qPCR splicing assay, SMN2 canonical junction (CJ) mRNA; settings: Homo sapiens
Method in brief: (§1)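 A673 or K562 cells were treated for 24 h at 37 °C with compound in 11-point 3-fold dilution (top 10 uM final, DMSO ≤0.25%). Lysates then went to one-step RT-qPCR measuring canonical-junction mRNA, normalized to GAPDH, GUSB or PPIA.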

Target C = assay: RT-qPCR splicing assay panel, Target C canonical junction (CJ) mRNA; settings: Homo sapiens
Method in brief: as §1

HTT = assay: HiBiT protein abundance assay, HTT HiBiT K562 cell line; settings: 24 hours, top dose 10 μM
Method in brief: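 K562 knock-in lines with endogenous HiBiT-tagged target, 10,000 cells/well in IMDM + FBS, treated 24 h at 37° C with 10-point 3-fold dilutions (top 10 μM final; DMSO ≤0.25%). Lytic Nano-Glo HiBiT luminescence normalized to untagged K562 baseline and DMSO controls; IC50 = concentration giving 50% abundance via four-parameter fit.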

[1] = canonical junction qPCR panel, Table 5, read-out: SMN2 (decrease in CJ mRNA levels, IC50)
[2] = canonical junction qPCR panel, Table 5, read-out: Target C (decrease in CJ mRNA levels, IC50)
[3] = HiBiT lytic detection, modified K562 cells, read-out: Effect on protein abundance, HTT (IC50)
[4] = HiBiT K562 cell line, read-out: Effect on protein abundance, HTT (IC50 category)
[5] = Table 5 panel, canonical junction qPCR, compound concentration having 50% response in CJ decrease, read-out: SMN2 IC50 (decrease in CJ mRNA levels)
[6] = Table 5 panel, canonical junction qPCR, compound concentration having 50% response in CJ decrease, read-out: Target C IC50 (decrease in CJ mRNA levels)

Row | IC50 (SMN2 mRNA; [1]) [µM] | IC50 (Target C; [2]) [µM] | IC50 (HTT; [3]) [µM] | IC50 (HTT; [4]) [µM] | IC50 (SMN2 mRNA; [5]) [µM] | IC50 (Target C; [6]) [µM] | SMILES
1 | < 0.1 | 0.1 to 1 | 0.1 to 1 |  |  |  | Cc1cn2nc(-c3ccc4c(=O)n(C5CC(C)N[C@H](C)C5)ncc4n3)cc(C)c2n1 (stereo in doubt) [Compound 1536, 2-(2,8-dimethylimidazo[1,2-b]pyridazin-6-yl)-6-[(2S,6R)-2,6-dimethyl-4-piperidyl]pyrido[2,3-d]pyridazin-5-one]
2 | < 0.1 | 0.1 to 1 |  | 0.1 to 1 |  |  | Cc1cn2nc(-c3ccc4c(=O)n(C5C[C@@H](C)N[C@H](C)C5)ncc4n3)cc(C)c2n1 (stereo in doubt) [Compound 1537, 2-(2,8-dimethylimidazo[1,2-b]pyridazin-6-yl)-6-[(2R,6R)-2,6-dimethyl-4-piperidyl]pyrido[2,3-d]pyridazin-5-one]
3 | 0.1 to 1 | 0.1 to 1 |  | 0.1 to 1 |  |  | Cc1cn2nc(-c3ccc4c(=O)n([C@H]5CC(C)N[C@@H](C)C5)ncc4n3)cc(C)c2n1 (stereo in doubt) [Compound 1538, 2-(2,8-dimethylimidazo[1,2-b]pyridazin-6-yl)-6-[(2S,6S)-2,6-dimethyl-4-piperidyl]pyrido[2,3-d]pyridazin-5-one]
4 |  |  |  | 0.1 to 1 | < 0.1 | 0.1 to 1 | Cc1cn2cc(-c3ccc4c(=O)n(C5CCNCC5)cnc4c3)cc(F)c2n1 [Compound 205]
5 |  |  |  | 0.1 to 1 | < 0.1 | 0.1 to 1 | Cn1cc2cc(-c3ccc4c(=O)n(C5CCNCC5)cnc4c3)cc(F)c2n1 [Compound 206]
6 |  |  |  | 1 to 10 | 0.1 to 1 | 1 to 10 | Cc1cn2cc(-c3ccc4c(=O)n(C5CCN(C)CC5)cnc4c3)cc(F)c2n1 [Compound 207]
7 |  |  |  | 1 to 10 | 0.1 to 1 | > 10 | CN1CCC(n2cnc3cc(-c4ccc5nn(C)cc5c4)ccc3c2=O)CC1 [Compound 208]
8 |  |  |  | > 10 | < 0.1 | 1 to 10 | CN1CCC(n2cnc3cc(-c4cc(F)c5nn(C)cc5c4)ccc3c2=O)CC1 [Compound 209]
9 |  |  |  | 1 to 10 | 0.1 to 1 | 1 to 10 | Cc1cn2cc(-c3ccc4c(=O)n(C5CCNCC5)cnc4c3F)cc(F)c2n1 [Compound 210]
10 |  |  |  | 0.1 to 1 | < 0.1 | 1 to 10 | Cc1nc2c(F)cc(-c3ccc4c(c3)CCN(C3CCNCC3)C4=O)cc2o1 [Compound 215]
11 |  |  |  | 0.1 to 1 | < 0.1 | 1 to 10 | Cc1cn2cc(-c3ccc4c(c3)CCN(C3CCNCC3)C4=O)cc(Cl)c2n1 [Compound 216, 6-[8-chloro-2-methylimidazo[1,2-a]pyridin-6-yl]-2-(piperidin-4-yl)-3,4-dihydroisoquinolin-1-one]
12 |  |  |  | 0.1 to 1 | 0.1 to 1 | > 10 | Cc1cn2cc(-c3ccc4c(c3)CCN(C3CCNCC3)C4=O)cc(C)c2n1 [Compound 217, 6-[2,8-dimethylimidazo[1,2-a]pyridin-6-yl]-2-(piperidin-4-yl)-3,4-dihydroisoquinolin-1-one]
13 |  |  |  | 1 to 10 | 1 to 10 | 1 to 10 | Cc1cn2cc(-c3ccc4c(c3)CCN(C3CCNCC3)C4=O)c(C)cc2n1 [Compound 218, 6-[2,7-dimethylimidazo[1,2-a]pyridin-6-yl]-2-(piperidin-4-yl)-3,4-dihydroisoquinolin-1-one]
14 |  |  |  | 0.1 to 1 | < 0.1 | 1 to 10 | Cc1cc(-c2ccc3c(c2)CCN(C2CCNCC2)C3=O)cc2cn(C)nc12 [Compound 219, 6-(2,7-dimethylindazol-5-yl)-2-(piperidin-4-yl)-3,4-dihydroisoquinolin-1-one]
15 |  |  |  | > 10 | > 10 | > 10 | O=C1c2ccc(-c3cn[nH]c3)cc2CCN1C1CCNCC1 [Compound 220, 2-(piperidin-4-yl)-6-(1H-pyrazol-4-yl)-3,4-dihydroisoquinolin-1-one]
16 |  |  |  | > 10 | 0.1 to 1 | > 10 | Cc1cn2cc(-c3ccc4c(c3)CCN(C3CCNCC3)C4=O)nc2c(C)n1 [Compound 221, 6-[6,8-dimethylimidazo[1,2-a]pyrazin-2-yl]-2-(piperidin-4-yl)-3,4-dihydroisoquinolin-1-one]
17 |  |  |  | 1 to 10 | 0.1 to 1 | 1 to 10 | Cc1cn2nc(-c3ccc4c(c3)CCN(C3CCNCC3)C4=O)nc2c(C)n1 [Compound 222, 6-[6,8-dimethyl-[1,2,4]triazolo[1,5-a]pyrazin-2-yl]-2-(piperidin-4-yl)-3,4-dihydroisoquinolin-1-one]

Row | IC50 (SMN2 mRNA; [1]) [µM] | IC50 (Target C; [2]) [µM] | IC50 (HTT; [3]) [µM] | IC50 (HTT; [4]) [µM] | IC50 (SMN2 mRNA; [5]) [µM] | IC50 (Target C; [6]) [µM] | SMILES
18 |  |  |  | 1 to 10 | 0.1 to 1 | > 10 | Cc1cn2nc(-c3ccc4c(c3)CCN(C3CCNCC3)C4=O)cc2c(C)n1 [Compound 223, 6-[4,6-dimethylpyrazolo[1,5-a]pyrazin-2-yl]-2-(piperidin-4-yl)-3,4-dihydroisoquinolin-1-one]
19 |  |  |  | > 10 | 0.1 to 1 | > 10 | Cc1cn2cc(-c3ccc4c(c3)CCN(C3CCNCC3)C4=O)ncc2n1 [Compound 224]
20 |  |  |  | 1 to 10 | > 10 | > 10 | Cn1cc2cc(-c3ccc4c(c3)CCN(C3CCNCC3)C4=O)cc(F)c2n1 [Compound 225]
21 |  |  |  | 1 to 10 | 0.1 to 1 | > 10 | Cc1nc2c(F)cc(-c3ccc4c(c3)CCN(C3CCNCC3)C4=O)cc2s1 [Compound 226]
22 |  |  |  | 1 to 10 | 0.1 to 1 | > 10 | Cc1cn2cc(-c3ccc4c(=O)n(C5CCN(C)CC5)cnc4c3F)cc(F)c2n1 [Compound 227]
23 |  |  |  | 0.1 to 1 | 0.1 to 1 | 0.1 to 1 | Cc1cn2cc(-n3cnc4cc(N5CCNCC5)ccc4c3=O)cc(F)c2n1 [Compound 228]
24 |  |  |  | > 10 | > 10 | > 10 | Cc1cn2cc(-n3cnc4cc(N5CCN(C)CC5)ccc4c3=O)cc(F)c2n1 [Compound 229]
25 |  |  |  | 0.1 to 1 | < 0.1 | < 0.1 | Cc1cn2cc(-c3cc(F)c4c(=O)n(C5CCNCC5)cnc4c3)cc(F)c2n1 [Compound 230]
26 |  |  |  | 0.1 to 1 | < 0.1 | 1 to 10 | Cc1cn2cc(-c3cc(F)c4c(=O)n(C5CCN(C)CC5)cnc4c3)cc(F)c2n1 [Compound 231, 5-fluoro-7-{8-fluoro-2-methylimidazo[1,2-a]pyridin-6-yl}-3-(1-methylpiperidin-4-yl)quinazolin-4-one]
27 |  |  |  | < 0.1 | < 0.1 | 0.1 to 1 | Cc1cc(-c2cc(F)c3c(=O)n(C4CCNCC4)cnc3c2)cc2cn(C)nc12 [Compound 232]
28 |  |  |  | 0.1 to 1 | < 0.1 | 1 to 10 | Cc1cc(-c2cc(F)c3c(=O)n(C4CCN(C)CC4)cnc3c2)cc2cn(C)nc12 [Compound 233]
29 |  |  |  | 1 to 10 | < 0.1 | > 10 | Cc1cc(-c2ccc3c(=O)n(C4CCNCC4)cnc3c2F)cc2cn(C)nc12 [Compound 234]
30 |  |  |  | > 10 | 0.1 to 1 | > 10 | Cc1cc(-c2ccc3c(=O)n(C4CCN(C)CC4)cnc3c2F)cc2cn(C)nc12 [Compound 235]
31 |  |  |  | 0.1 to 1 | < 0.1 | 0.1 to 1 | Cc1cn2cc(-c3ccc4c(=O)n(C5CCNC6(CC6)C5)cnc4c3)cc(F)c2n1 (stereo not shown) [Compound 236]
32 |  | 0.1 to 1 | < 0.1 |  |  |  | Cc1c(O)c(-c2ncc3c(=O)n([C@H]4CCNC5(CC5)C4)ccc3n2)cc2cn(C)nc12 [Compound 1512]
33 |  | 0.1 to 1 | 0.1 to 1 |  |  |  | Cc1c(O)c(-c2nc(C)c3c(=O)n([C@@H]4CCNC5(CC5)C4)ccc3n2)cc2cn(C)nc12 [Compound 1515, (R)-2-(6-hydroxy-2,7-dimethyl-2H-indazol-5-yl)-4-methyl-6-(4-azaspiro[2.5]octan-7-yl)pyrido[4,3-d]pyrimidin-5(6H)-one]
